*1 amine or outer side, *2 acyl side, *3 side chain or, on linkers, in order; H or OH if unused. Where a SMILES comes first, the peptide text is derived from it. Bridges are numbered along the chain shown (N, C = ends). [ ]: non-standard residue; d: D form. The star is where a group is joined. hTyr(3S-OH,4S-OH,3'-OSO3H) = N[C@H](C(=O)O)[C@H](O)[C@@H](O)c1ccc(O)c(OS(=O)(=O)O)c1; Orn(4R-OH,5R-OH) = O=C([C@H](C[C@@H](O)[C@@H](O)N[*:3])N[*:1])[*:2]; Pro(3S-OH,4S-Me) = C[C@H]1CN[C@H](C(=O)O)[C@H]1O; X1 = CCCCCOc1ccc(-c2cc(-c3ccc(C(=O)*)cc3)no2)cc1; Gln(3R-OH) = NC(=O)C[C@@H](O)[C@H](N)C(=O)O; Hyp = O=C(O)[C@@H]1C[C@@H](O)CN1
How the values were obtained:
Acetylcholinesterase = Acetylcholinesterase (Homo sapiens, UniProt P22303); type: functional
D(3) dopamine receptor = D(3) dopamine receptor (Homo sapiens, UniProt P35462)
Prothrombin = Prothrombin (Homo sapiens, UniProt P00734); type: functional
Mu-type opioid receptor = Mu-type opioid receptor (Homo sapiens, UniProt P35372)
Thromboxane A2 receptor [1] = biological target: T1, Thromboxane A2 receptor (Homo sapiens, UniProt P21731); type: functional, cell-based
T1 sequence (P21731 whole entry): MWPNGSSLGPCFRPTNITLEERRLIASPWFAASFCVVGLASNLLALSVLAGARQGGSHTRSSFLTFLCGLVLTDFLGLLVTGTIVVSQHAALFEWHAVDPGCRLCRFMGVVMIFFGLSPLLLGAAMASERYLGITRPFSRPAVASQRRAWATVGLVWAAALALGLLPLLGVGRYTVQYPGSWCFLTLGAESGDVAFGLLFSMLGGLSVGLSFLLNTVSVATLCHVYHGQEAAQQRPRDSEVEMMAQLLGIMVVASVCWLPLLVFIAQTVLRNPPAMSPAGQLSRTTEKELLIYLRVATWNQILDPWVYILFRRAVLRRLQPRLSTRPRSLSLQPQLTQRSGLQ

[2] = biological target: T2, 5-hydroxytryptamine receptor 1A (Homo sapiens, UniProt P08908)
T2 sequence (P08908 whole entry): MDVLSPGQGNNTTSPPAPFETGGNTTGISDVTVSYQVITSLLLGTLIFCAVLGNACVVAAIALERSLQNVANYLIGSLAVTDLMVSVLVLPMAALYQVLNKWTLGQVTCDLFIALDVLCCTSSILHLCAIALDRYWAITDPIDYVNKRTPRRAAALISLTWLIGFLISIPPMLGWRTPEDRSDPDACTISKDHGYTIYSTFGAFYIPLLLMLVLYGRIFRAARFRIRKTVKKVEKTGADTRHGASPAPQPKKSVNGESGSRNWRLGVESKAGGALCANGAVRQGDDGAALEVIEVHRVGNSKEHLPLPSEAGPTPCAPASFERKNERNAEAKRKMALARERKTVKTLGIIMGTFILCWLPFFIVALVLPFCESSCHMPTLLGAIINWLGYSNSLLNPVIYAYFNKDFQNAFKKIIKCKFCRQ

[3] = biological target: T3, Muscarinic acetylcholine receptor M2 (Homo sapiens, UniProt P08172)
T3 sequence (P08172 whole entry): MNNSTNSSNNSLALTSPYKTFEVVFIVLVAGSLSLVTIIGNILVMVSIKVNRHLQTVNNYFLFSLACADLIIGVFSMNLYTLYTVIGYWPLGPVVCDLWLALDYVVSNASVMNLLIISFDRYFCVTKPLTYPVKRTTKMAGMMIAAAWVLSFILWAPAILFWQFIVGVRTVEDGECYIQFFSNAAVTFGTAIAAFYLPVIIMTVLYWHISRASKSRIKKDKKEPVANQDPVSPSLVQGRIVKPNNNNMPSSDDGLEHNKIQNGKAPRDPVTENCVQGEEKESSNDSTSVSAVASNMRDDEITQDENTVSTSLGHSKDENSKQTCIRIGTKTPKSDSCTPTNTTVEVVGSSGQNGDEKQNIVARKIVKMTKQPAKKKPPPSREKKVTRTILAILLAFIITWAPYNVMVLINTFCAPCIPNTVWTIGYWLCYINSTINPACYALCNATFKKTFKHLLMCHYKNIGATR

[4] = biological target: cGMP-inhibited 3',5'-cyclic phosphodiesterase 3A (Homo sapiens, UniProt Q14432); type: functional
[5] = biological target: T4, Prostaglandin G/H synthase 1 (Homo sapiens, UniProt P23219); type: functional
[6] = biological target: T5, Alpha-2A adrenergic receptor (Homo sapiens, UniProt P08913)
T5 sequence (P08913 whole entry): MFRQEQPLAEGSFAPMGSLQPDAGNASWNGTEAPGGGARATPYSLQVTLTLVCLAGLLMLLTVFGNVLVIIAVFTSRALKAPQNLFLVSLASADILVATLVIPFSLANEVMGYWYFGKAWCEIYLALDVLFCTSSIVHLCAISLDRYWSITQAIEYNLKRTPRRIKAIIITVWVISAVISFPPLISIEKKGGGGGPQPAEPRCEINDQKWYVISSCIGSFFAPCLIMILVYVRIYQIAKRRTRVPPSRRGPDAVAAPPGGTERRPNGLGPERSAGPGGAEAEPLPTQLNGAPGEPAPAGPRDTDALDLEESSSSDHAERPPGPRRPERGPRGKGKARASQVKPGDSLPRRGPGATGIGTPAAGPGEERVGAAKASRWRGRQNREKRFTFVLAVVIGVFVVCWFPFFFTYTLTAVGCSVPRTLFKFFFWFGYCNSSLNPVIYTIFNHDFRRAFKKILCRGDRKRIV

Histamine H3 receptor = Histamine H3 receptor (Homo sapiens, UniProt Q9Y5N1)
[7] = biological target: 3',5'-cyclic-AMP phosphodiesterase 4A (Homo sapiens, UniProt P27815); type: functional
Thromboxane A2 receptor [8] = biological target: T1, Thromboxane A2 receptor; type: functional, cell-based; remark: listed apart in the source
[9] = biological target: T4, Prostaglandin G/H synthase 1; type: functional; remark: listed apart in the source
[10] = biological target: T6, Amine oxidase [flavin-containing] A (Homo sapiens, UniProt P21397); type: functional
T6 sequence (P21397 whole entry): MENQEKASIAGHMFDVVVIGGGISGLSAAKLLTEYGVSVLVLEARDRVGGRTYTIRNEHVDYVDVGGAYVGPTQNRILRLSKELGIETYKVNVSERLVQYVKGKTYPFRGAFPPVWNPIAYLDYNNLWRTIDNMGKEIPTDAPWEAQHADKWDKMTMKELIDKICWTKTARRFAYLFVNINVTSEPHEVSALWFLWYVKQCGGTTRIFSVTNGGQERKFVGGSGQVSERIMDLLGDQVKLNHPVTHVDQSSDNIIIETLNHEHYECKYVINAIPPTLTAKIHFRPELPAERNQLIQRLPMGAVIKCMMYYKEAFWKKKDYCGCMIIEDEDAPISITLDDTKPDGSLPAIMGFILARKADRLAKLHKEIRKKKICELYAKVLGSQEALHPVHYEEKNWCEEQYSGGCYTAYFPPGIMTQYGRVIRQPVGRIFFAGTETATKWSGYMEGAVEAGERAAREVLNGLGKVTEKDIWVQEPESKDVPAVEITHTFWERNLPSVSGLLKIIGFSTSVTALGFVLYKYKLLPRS
Note: assay procedure not described here.

Chain of Histamine H3 receptor (Q9Y5N1 whole entry): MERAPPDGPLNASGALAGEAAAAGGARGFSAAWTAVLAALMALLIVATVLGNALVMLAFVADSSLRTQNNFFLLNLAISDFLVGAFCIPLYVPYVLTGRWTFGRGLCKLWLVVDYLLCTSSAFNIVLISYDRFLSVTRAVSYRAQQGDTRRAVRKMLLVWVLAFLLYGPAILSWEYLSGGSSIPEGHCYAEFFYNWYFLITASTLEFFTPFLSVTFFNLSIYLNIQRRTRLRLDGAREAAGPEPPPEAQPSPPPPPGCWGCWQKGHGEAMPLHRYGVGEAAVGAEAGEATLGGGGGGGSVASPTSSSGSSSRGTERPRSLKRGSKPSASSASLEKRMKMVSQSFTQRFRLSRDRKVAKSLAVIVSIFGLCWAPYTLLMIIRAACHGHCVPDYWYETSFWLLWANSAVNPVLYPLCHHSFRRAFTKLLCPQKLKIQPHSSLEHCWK
Chain of cGMP-inhibited 3',5'-cyclic phosphodiesterase 3A (Q14432 whole entry): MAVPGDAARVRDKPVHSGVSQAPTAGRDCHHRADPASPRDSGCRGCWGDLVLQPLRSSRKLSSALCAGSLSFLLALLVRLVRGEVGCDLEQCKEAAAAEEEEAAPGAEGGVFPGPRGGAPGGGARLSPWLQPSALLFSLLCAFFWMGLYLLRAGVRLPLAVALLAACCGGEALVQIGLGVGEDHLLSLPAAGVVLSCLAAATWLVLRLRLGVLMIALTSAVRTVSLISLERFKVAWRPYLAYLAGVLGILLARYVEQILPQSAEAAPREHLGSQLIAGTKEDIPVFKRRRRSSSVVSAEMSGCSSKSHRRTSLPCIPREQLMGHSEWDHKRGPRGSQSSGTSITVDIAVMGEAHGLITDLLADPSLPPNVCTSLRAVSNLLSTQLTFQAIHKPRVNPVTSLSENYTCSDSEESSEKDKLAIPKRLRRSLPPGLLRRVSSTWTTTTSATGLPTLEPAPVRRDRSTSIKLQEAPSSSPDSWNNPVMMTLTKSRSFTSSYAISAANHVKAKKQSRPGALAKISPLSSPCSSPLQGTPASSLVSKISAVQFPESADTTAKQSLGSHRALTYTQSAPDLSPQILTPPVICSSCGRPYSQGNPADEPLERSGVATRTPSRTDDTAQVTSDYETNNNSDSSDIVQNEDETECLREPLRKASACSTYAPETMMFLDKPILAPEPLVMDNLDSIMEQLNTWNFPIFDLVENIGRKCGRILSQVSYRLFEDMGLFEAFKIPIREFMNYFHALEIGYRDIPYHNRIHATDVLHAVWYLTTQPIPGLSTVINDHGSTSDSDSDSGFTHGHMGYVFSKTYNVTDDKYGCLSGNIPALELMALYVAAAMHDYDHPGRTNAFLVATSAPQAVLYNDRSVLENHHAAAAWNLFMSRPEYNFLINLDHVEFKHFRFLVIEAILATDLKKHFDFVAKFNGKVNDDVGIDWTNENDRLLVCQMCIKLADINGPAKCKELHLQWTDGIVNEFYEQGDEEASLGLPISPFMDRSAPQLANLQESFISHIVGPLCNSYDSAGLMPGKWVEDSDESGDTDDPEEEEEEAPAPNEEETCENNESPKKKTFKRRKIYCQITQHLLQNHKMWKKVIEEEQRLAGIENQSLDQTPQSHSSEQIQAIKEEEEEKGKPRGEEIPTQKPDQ
Chain of Mu-type opioid receptor (P35372 whole entry): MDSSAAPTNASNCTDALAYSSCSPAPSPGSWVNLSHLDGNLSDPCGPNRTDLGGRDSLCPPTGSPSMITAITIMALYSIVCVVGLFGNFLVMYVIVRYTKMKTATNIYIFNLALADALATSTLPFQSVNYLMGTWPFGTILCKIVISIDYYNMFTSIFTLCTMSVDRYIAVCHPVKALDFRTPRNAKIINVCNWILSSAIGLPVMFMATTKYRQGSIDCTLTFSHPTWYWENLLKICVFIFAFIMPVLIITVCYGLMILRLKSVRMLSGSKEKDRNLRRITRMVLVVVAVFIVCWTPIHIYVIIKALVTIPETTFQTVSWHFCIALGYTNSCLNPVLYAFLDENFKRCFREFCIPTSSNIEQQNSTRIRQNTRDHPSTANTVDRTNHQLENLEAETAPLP
Chain of Acetylcholinesterase (P22303 whole entry): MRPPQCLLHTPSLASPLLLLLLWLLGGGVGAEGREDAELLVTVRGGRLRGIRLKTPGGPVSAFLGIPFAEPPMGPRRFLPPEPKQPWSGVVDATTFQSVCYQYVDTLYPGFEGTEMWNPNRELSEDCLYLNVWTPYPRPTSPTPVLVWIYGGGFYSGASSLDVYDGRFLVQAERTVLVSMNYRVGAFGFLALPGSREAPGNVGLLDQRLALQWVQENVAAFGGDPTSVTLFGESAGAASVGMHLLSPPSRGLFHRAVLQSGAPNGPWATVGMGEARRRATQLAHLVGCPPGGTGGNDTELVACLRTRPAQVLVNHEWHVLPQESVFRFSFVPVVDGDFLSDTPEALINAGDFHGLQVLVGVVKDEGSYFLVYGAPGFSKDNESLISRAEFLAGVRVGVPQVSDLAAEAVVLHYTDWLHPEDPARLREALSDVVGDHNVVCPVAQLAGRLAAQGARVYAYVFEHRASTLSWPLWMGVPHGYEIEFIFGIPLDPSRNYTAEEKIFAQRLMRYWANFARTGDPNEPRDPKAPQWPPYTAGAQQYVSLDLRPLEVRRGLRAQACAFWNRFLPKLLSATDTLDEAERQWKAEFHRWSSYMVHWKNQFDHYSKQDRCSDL
T4 sequence (P23219 whole entry): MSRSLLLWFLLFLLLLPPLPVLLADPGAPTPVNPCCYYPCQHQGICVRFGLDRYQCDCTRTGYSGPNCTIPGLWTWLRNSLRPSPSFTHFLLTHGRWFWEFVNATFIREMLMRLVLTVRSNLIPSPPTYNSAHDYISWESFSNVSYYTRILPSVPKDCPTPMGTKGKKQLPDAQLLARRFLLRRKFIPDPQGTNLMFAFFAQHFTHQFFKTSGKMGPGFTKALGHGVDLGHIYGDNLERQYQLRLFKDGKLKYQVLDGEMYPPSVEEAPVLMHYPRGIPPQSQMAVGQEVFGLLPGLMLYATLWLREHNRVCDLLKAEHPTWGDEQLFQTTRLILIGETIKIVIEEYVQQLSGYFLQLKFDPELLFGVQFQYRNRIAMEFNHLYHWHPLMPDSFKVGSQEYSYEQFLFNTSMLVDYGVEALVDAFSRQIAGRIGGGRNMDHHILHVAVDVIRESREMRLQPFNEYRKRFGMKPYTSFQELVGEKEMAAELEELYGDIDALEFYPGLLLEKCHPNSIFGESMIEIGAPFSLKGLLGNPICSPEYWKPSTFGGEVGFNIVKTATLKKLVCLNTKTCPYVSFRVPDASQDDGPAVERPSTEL
Chain of 3',5'-cyclic-AMP phosphodiesterase 4A (P27815 whole entry): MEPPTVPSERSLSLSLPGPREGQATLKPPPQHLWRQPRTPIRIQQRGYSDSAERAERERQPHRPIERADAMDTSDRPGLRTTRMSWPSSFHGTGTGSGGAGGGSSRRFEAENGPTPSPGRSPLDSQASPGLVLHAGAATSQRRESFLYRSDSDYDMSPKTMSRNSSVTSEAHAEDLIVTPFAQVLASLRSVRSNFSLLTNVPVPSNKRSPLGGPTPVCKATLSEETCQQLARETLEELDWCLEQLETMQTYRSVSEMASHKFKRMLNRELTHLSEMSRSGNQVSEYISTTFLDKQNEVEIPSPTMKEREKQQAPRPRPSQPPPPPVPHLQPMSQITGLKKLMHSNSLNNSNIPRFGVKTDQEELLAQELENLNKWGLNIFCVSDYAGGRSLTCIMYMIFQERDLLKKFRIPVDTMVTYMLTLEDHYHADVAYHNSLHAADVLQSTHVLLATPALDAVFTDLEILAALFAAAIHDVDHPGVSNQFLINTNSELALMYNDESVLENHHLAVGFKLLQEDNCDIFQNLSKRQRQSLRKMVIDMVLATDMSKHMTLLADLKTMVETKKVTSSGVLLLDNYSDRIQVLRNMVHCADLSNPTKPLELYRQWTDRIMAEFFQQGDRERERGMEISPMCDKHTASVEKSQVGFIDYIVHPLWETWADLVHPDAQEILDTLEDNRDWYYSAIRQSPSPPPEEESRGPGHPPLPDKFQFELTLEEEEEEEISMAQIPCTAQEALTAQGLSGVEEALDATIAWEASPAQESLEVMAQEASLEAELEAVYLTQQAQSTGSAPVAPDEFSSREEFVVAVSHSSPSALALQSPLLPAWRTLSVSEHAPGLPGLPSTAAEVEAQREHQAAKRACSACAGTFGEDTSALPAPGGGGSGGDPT
Chain of D(3) dopamine receptor (P35462 whole entry): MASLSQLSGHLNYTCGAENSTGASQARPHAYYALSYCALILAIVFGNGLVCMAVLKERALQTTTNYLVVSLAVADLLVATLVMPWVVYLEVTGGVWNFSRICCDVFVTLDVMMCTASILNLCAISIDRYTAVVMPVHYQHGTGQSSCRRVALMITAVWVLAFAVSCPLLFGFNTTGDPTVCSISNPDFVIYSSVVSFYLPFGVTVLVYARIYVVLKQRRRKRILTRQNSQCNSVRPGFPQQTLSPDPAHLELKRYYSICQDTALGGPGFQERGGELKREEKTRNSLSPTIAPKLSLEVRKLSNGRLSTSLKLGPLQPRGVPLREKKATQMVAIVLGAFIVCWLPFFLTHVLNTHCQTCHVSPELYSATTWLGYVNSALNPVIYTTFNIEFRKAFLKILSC

Compound	AC50 (Acetylcholinesterase)	AC50 (D(3) dopamine receptor)	AC50 (Prothrombin)	AC50 (Mu-type opioid receptor)	AC50 (Thromboxane A2 receptor [1])	AC50 [2]	AC50 [3]	AC50 [4]	AC50 [5]	AC50 [6]	AC50 (Histamine H3 receptor)	AC50 [7]	AC50 (Thromboxane A2 receptor [8])	AC50 [9]	AC50 [10]
CC1(C)O[C@@H]2C[C@H]3[C@@H]4CCC5=CC(=O)CC[C@]5(C)[C@@]4(F)[C@@H](O)C[C@]3(C)[C@]2(C(=O)CCl)O1 [HALCINONIDE]	> 30 µM	> 30 µM	> 30 µM	> 30 µM	> 30 µM	> 30 µM	> 30 µM	> 30 µM	> 30 µM	> 30 µM	> 30 µM	> 30 µM	> 30 µM	> 30 µM	> 30 µM
N=C(N)NCc1cccc([123I])c1 [IOBENGUANE I 123]	> 30 µM	8.17 µM	> 30 µM	22 µM	> 30 µM	2.49 µM	> 30 µM	> 30 µM	> 30 µM	0.488 µM	> 30 µM	> 30 µM	> 30 µM	> 30 µM	26.4 µM
CC(C)(N)C(=O)N[C@H](Cc1c[nH]c2ccccc12)C(=O)N[C@H](Cc1c[nH]c2ccccc12)NC=O [MACIMORELIN]	> 30 µM	> 30 µM	> 30 µM	0.75 µM	> 30 µM	> 30 µM	> 30 µM	> 30 µM	> 30 µM	> 30 µM	> 30 µM	> 30 µM	> 30 µM	> 30 µM	> 30 µM
C=C1c2c(Cl)ccc(O)c2C(=O)C2=C(O)[C@]3(O)C(=O)C(C(N)=O)=C(O)[C@@H](N(C)C)[C@@H]3[C@@H](O)[C@H]12 [MECLOCYCLINE]	> 30 µM	> 30 µM	> 30 µM	> 30 µM	> 30 µM	> 30 µM	> 30 µM	> 30 µM	> 30 µM	> 30 µM	> 30 µM	> 30 µM	> 30 µM	> 30 µM	> 30 µM
Cc1cc2c(OCC(O)CNC(C)C)cccc2[nH]1 (stereo not given) [MEPINDOLOL]	> 30 µM	19.9 µM	> 30 µM	21 µM	> 30 µM	0.0041 µM	> 30 µM	> 30 µM	10.9 µM	12.3 µM	> 30 µM	> 30 µM	> 30 µM	15.2 µM	> 30 µM
CCCCCOc1ccc(-c2cc(-c3ccc(C(=O)N[C@H]4C[C@@H](O)[C@@H](O)NC(=O)[C@@H]5[C@@H](O)[C@@H](C)CN5C(=O)[C@H]([C@H](O)CC(N)=O)NC(=O)[C@H]([C@H](O)[C@@H](O)c5ccc(O)c(OS(=O)(=O)O)c5)NC(=O)[C@@H]5C[C@@H](O)CN5C(=O)[C@H]([C@@H](C)O)NC4=O)cc3)no2)cc1 [MICAFUNGIN] (X1-[Orn(4R-OH,5R-OH)]T[Hyp][hTyr(3S-OH,4S-OH,3'-OSO3H)][Gln(3R-OH)][Pro(3S-OH,4S-Me)]; lactam 1-C)	> 30 µM	> 30 µM	> 30 µM	7.68 µM	7.12 µM	> 30 µM	> 30 µM	> 30 µM	> 30 µM	> 30 µM	> 30 µM	29.5 µM	> 30 µM	> 30 µM	> 30 µM
CCOc1cc(N)c(Cl)cc1C(=O)NCC1CN(Cc2ccc(F)cc2)CCO1 (stereo not given) [MOSAPRIDE]	> 30 µM	6.86 µM	> 30 µM	> 30 µM	> 30 µM	5.18 µM	> 30 µM	> 30 µM	> 30 µM	3.01 µM	> 30 µM	> 30 µM	> 30 µM	> 30 µM	> 30 µM
CN1CCC[C@H]1c1cccnc1 [NICOTINE]	> 30 µM	> 30 µM	> 30 µM	> 30 µM	> 30 µM	> 30 µM	> 30 µM	> 30 µM	> 30 µM	> 30 µM	> 30 µM	> 30 µM	> 30 µM	22 µM	> 30 µM
C#C[C@]1(O)CC[C@H]2[C@@H]3CCC4=C(CCC(=O)C4)[C@H]3CC[C@@]21C [NORETHYNODREL]	> 30 µM	> 30 µM	> 30 µM	> 30 µM	24.2 µM	> 30 µM	> 30 µM	23.4 µM	> 30 µM	> 30 µM	> 30 µM	> 30 µM	> 30 µM	11.8 µM	> 30 µM
CN(C)c1cc(CNCC(C)(C)C)c(O)c2c1C[C@H]1C[C@H]3[C@H](N(C)C)C(O)=C(C(N)=O)C(=O)[C@@]3(O)C(O)=C1C2=O [OMADACYCLINE]	> 10 µM	> 30 µM	> 30 µM	> 30 µM	> 10 µM	> 30 µM	9.2 µM	> 30 µM	0.16 µM	> 30 µM	> 30 µM	> 30 µM	> 30 µM	0.25 µM	> 30 µM
O=C1[C@H]2CCCC[C@H]2C(=O)N1CCCCN1CCN(c2nsc3ccccc23)CC1 [PEROSPIRONE]	> 30 µM	0.003 µM	> 30 µM	9.84 µM	7.44 µM	0.003 µM	7.34 µM	> 30 µM	> 30 µM	0.22 µM	> 30 µM	> 30 µM	> 30 µM	> 30 µM	> 30 µM
